Test [1] concerns BRCA1. Nature of the test: BRCA1 cellular localization by immunofluorescence. The test is classed as cell-based, human. The note with it: 12 μM, 48 hours; MDA-MB-231, HCC1937 and IGROV-1 cells. On the procedure: (§1) FIG. 10 illustrates the effect of 12 μM COMP on (A) γH2AX expression levels and on (FIG. 10B) γH2AX and RAD51 foci formation, and BRCA1 foci formation and cellular localization after 48 hours of treatment. […] FIG. 10B are representative images generated using Fiji software (scale bar=100 μm; 400 × magnification).

Test [2] concerns PD-OVCA#49. Nature of the test: Growth inhibition, MTS assay, PD-OVCA#49. The test is classed as cell-based, human. As to conditions: Homo sapiens, PD-OVCA#49, wild-type BRCA1/2, 48 hours. The text has this: (§2) Table 2 refers to the growth inhibitory effect of COMP, olaparib and cisplatin (CDDP) in a panel of human immortalized breast (T47D, MCF-7, MDA-MB-231, MDA-MB-468, SK-BR-3 and HCC1937), ovarian and endocervical (OCVAR, SKOV-3, […],IGROV-1 and HeLa), pancreatic (PANC-1 and MIAPACA), neuroblastoma (SHSY-5Y), lung (NCI-H460), prostate (VCaP) melanoma (A375 and SK-MEL-5) and glioblastoma (SF-208) cancer cells, immortalized normal MCF10a and HFF1 human cells, and patient-derived ovarian (PD-OVCA #1, #9, #41, #49 and #62) cancer cells. […] Data are mean±SEM (n=5).
(§3) In an embodiment, IC50 values were determined by Sulforhodamine B (SRB) or MTS [3-(4,5-dimethylthiazol-2-yl)-5-(3-carboxymethoxyphenyl)-2-(4-sulfophenyl)-2H-tetrazolium] assay in immortalized and PD-OVCA cells, respectively. Cancer cells were plated in 96-well plates and incubated for 24 hours. Cells were then exposed to serial dilutions of compounds for 48 hours. The solvent DMSO corresponding to the maximum concentration used in these assays (0.025%) was included as control. Results are the mean±S.E.M. of 3-5 independent experiments.
On the technique in general: Tetrazolium assays rely on reduction of a dye to a coloured formazan, in cell work by metabolically active cells.

Test [3] deals with MCF7 DR-GFP cells. As to the kind of experiment: Chromosomal DR-GFP homologous recombination assay. The note with it: 2 μM and 6 μM, 48 hours. The class given is cell-based, human. On the procedure:
FIG. 9 illustrates the effect of 2 and 6 μM COMP after 48 hours of treatment on homologous recombination activity in MCF7 DR-GFP cells using the chromosomal DR-GFP assay. After 72 hours of double strand breaks induction, MCF7 DR-GFP cells were analysed by flow cytometry to quantify the percentage of GFP-positive cells.
In an embodiment, COMP decreased homologous recombination DNA repair and disrupted the BRCA1-BARD1 interaction.

The subject of test [4] is HCC1937 mammospheres. As to the kind of experiment: 3D-mammosphere model. The class given is cell-based, human. On the procedure:
FIG. 5 illustrates the effect of COMP on (A-B) HCC1937 mammosphere formation after 72 hours of treatment with COMP; treatment was performed at seeding time of HCC1937 cells or at (C-D) three-day-old HCC1937 mammospheres for up to 11 days of treatment. FIG. 5A and FIG. 5C are representative images (scale bar=50 μm, 100× magnification).

For test [5], the system named is MDA-MB-468. As to the kind of experiment: Growth inhibition, SRB assay, MDA-MB-468. The class given is cell-based, human. As to conditions: Homo sapiens, MDA-MB-468, 48 h.
Text: as §2, §3
On the technique in general: The SRB assay estimates cell density from bound dye.

Test [6] has as its system breast cancer cells (T47D, MCF-7, MDA-MB-231, MDA-MB-468, SK-BR-3 and HCC1937). Nature of the test: Growth inhibition, panel of breast cancer cells. The test is classed as cell-based. The note with it: Homo sapiens, range over T47D, 48 hours. On the procedure:
(§4) In an embodiment, the activity of COMP compound was tested in an array of human normal and cancer cell lines (Table 2, FIG. 2).
as §2, §3

Test [7] has as its system key proteins involved in homologous recombination, proliferation and chemoresistance. As to the kind of experiment: Protein expression by western blot. The test is classed as cell-based, human. The note with it: 12 μM, 48 hours. On the procedure: FIG. 6 illustrates the effect of 12 μM COMP on the (A-B) expression of key proteins involved in homologous recombination, proliferation and chemoresistance in triple-negative breast cancer and ovarian cancer cells after 48 hours of treatment.
In an embodiment, the COMP compound modulated the expression of key proteins involved in homologous DNA repair, proliferation, chemoresistance, induced cell cycle arrest, apoptosis and ROS generation, in triple-negative breast cancer and ovarian cancer cells.
(In western blotting, separated proteins are transferred to a membrane and probed.)

The test system of test [8] is IGROV-1 tumors. Nature of the test: In vivo antitumor activity in xenograft mice. As to conditions: 2 mg/kg intraperitoneal, seven administrations; compared to vehicle or 50 mg/kg of olaparib. On the procedure: FIG. 14 illustrates the in vivo antitumor activity of COMP. C57BL/6-Rag2−/−IL2rg−/− xenograft mice, carrying IGROV-1 cells, were treated with vehicle (control), or 2 mg/kg of COMP or 50 mg/kg of olaparib by intraperitoneal injection three times per week (seven administrations in total). The treatment was initiated when palpable tumors were established (^˜100 mm3). […] In FIGS. 14A-C, data are mean±SEM, n=13 animals.

In test [9] the test system is T47D. As to the kind of experiment: Growth inhibition, SRB assay, T47D. The test is classed as cell-based, human. The note with it: Homo sapiens, 48 h.
Text: as §2, §3

The subject of test [10] is pancreatic cancer cells (PANC-1 and MIAPACA). Nature of the test: Growth inhibition, pancreatic cancer cells. The class given is cell-based. As to conditions: Homo sapiens, Pancreatic cancer cell, 48 hours. On the procedure: as §4, §2, §3
The subject of test [11] is IGROV-1 (mutBRCA1 280delA; mutBRCA2 3320del1). Nature of the test: Growth inhibition, SRB assay, IGROV-1. The note with it: Homo sapiens, IGROV-1, 48 h. The test is classed as cell-based, human.
Text: as §2, §3

The test system of test [12] is patient-derived ovarian cancer cells. Nature of the test: Growth inhibition, patient-derived ovarian cancer cells. As to conditions: Homo sapiens; range over PD-OVCA cells; MTS, 48 hours. The test is classed as cell-based. On the procedure:
as §4, §2, §3

Test [13] has as its system RAD51. Nature of the test: RAD51 foci formation by immunofluorescence. The class given is cell-based, human. As to conditions: 12 μM, 48 hours. On the procedure:
as §1

Test [14] deals with HCC1937 cells. As to the kind of experiment: Wound healing assay (cell migration). The class given is cell-based, human. The note with it: 1.9 μM. The procedure:
FIG. 12 illustrates the prevention of HCC1937 cells migration by COMP. Confluent cells were treated with 1.9 μM COMP or DMSO and observed at different time-points in the wound healing assay (scale bar=50 μm and magnification=100×).
In an embodiment, COMP prevented cell migration of triple-negative breast cancer cells. The effect of COMP on the migration ability of HCC1937 cells was also studied.

Test [15] has as its system MiaPACA. Nature of the test: Growth inhibition, SRB assay, MiaPACA. The note with it: Homo sapiens, MIA PaCa-2, wild-type BRCA1/2, 48 hours. The test is classed as cell-based.
Text: as §2, §3

What is called IC50 is the midpoint of a concentration-inhibition curve. On to `CC[C@H]1CN(C)C2Cc3c([nH]c4ccccc34)/C(=N/Nc3ccc(Br)cn3)C[C@@H]1[C@@H]2C(=O)OC` [COMP, methyl (5R,6S,14S,E)-8-(2-(5-bromopyridin-2-yl) hydrazineylidene)-5-ethyl-3-methyl-2,3,4,5,6,7,8,9-octahydro-1H-2,6-methanoazecino [5,4-b]indole-14-carboxylate], for which the BRCA1 cellular localization entry in [1] is “triggered the nucleocytoplasmic translocation of BRCA1”. Besides, the IC50 in test [2] was 15.1 ± 1.4 µM; in test [5] (MDA-MB-468, BRCA1 loss of heterozigoty, 48 hours), 4.4 ± 0.8 µM; in test [5] (MDA-MB-468, BRCA1 loss of heterozygosity, 48 hours (second Table 2)), 4.4 µM; in [6], 4.4 to 12 µM; in [9] (BRCA1 wild-type, 48 hours (second Table 2)), 11.5 µM; in test [9] (wild-type BRCA1/2, 48 hours), 11.5 ± 3 µM. Further, the IC50 in test [10] is 4.5 µM; in [11] (IGROV-1, mutant BRCA1/2, 48 hours), 4.6 ± 1.5 µM; in test [11] (Igrov-1, BRCA1 mutant, 48 hours (second Table 2)), 4.6 µM; in test [12] it was 2.68 to 15.1 µM; in test [15] it was 4.5 ± 0.4 µM. In addition, the “homologous recombination DNA repair capacity (GFP-positive cells)” value in test [3] was “marked reduction”. The “mammosphere growth in three-day old spheroids” value in [4] (6 μM and 12 μM, up to 11 days) is reported as “markedly reduced”. Also, in [4] (6 μM, added upon seeding of HCC1937 cells, 72 hours), the “mammosphere (spheroids) formation” value is reported as “complete abolishment of spheroids formation”. The “mammosphere integrity in three-day old spheroids” value in [4] (12 μM, up to 11 days) is “triggering mammosphere disintegration”. The “PUMA and cleaved PARP protein expression levels” value in [7] is “increase”. Besides, the “expression levels of DNA damage repair proteins (BRCA1, BRCA2, RAD51, RAD52, FANCD2, pATM, pATR) and resistance-related proteins (CDK2, survivin, BARD1)” value in test [7] is given as “significantly decreased”. The “expression of p21” value in [7] is listed as “increased expression of p21”. In addition, the “growth of IGROV-1 tumors” value in test [8] is on record as “significantly inhibited”. Also, the RAD51-foci formation result in test [13] is “pronounced reduction”. For the same compound, the wound closure result in test [14] was “significantly reduced the wound closure”.

These data come from patent US20250345317A1, “New pharmaceutical compounds, methods and uses thereof” (BBIT-THERAPEUTICS, LDA., priority 2020, published 2025).
